Reference: the supplement of paper PMC10307832

Columns and labels:
Test in all cases: relative viability (nuclei count vs DMSO), 5 days (fraction); higher = more cells survive
Alpelisib + Foretinib = compound: Cc1nc(NC(=O)N2CCC[C@H]2C(N)=O)sc1-c1ccnc(C(C)(C)C(F)(F)F)c1 [Alpelisib] + COc1cc2c(Oc3ccc(NC(=O)C4(C(=O)Nc5ccc(F)cc5)CC4)cc3F)ccnc2cc1OCCCN1CCOCC1 [Foretinib] (partner 0.25 µM)
How it was run: (§1)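 Lung cancer cell lines were seeded in 1536-well plates and dosed by pin tool the next day, with either a single drug or a fixed anchor-drug dose combined with five library-drug doses (not always all listed) spaced in √10 steps. Five days later, one step fixed the cells and stained their nuclei (final 0.05% Triton X-100, 1% formaldehyde, 1 ug/ml Hoechst), and nuclei were counted on 4× images. Relative viability is the nuclei count in treated wells divided by the count in vehicle wells, and each value is the median of duplicate plates.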

Vemurafenib + Olaparib = compound: CCCS(=O)(=O)Nc1ccc(F)c(C(=O)c2c[nH]c3ncc(-c4ccc(Cl)cc4)cc23)c1F [Vemurafenib] + O=C(c1cc(Cc2n[nH]c(=O)c3ccccc23)ccc1F)N1CCN(C(=O)C2CC2)CC1 [Olaparib] (partner 8 µM)
How it was run: as §1

OSI-027 + Pemetrexed = compound: COc1cccc2cc(-c3nc([C@H]4CC[C@H](C(=O)O)CC4)n4ncnc(N)c34)[nH]c12 [OSI-027] + Nc1nc2[nH]cc(CCc3ccc(C(=O)N[C@@H](CCC(=O)O)C(=O)O)cc3)c2c(=O)[nH]1 [Pemetrexed] (partner 0.2 µM)
How it was run: as §1

Alpelisib + Navitoclax = compound: Cc1nc(NC(=O)N2CCC[C@H]2C(N)=O)sc1-c1ccnc(C(C)(C)C(F)(F)F)c1 [Alpelisib] + CC1(C)CCC(c2ccc(Cl)cc2)=C(CN2CCN(c3ccc(C(=O)NS(=O)(=O)c4ccc(N[C@H](CCN5CCOCC5)CSc5ccccc5)c(S(=O)(=O)C(F)(F)F)c4)cc3)CC2)C1 [Navitoclax] (partner 0.5 µM)
How it was run: as §1

Cell Line	relative viability (Alpelisib + Foretinib; first compound 0.04 µM)	relative viability (Alpelisib + Foretinib; first compound 0.1265 µM)	relative viability (Alpelisib + Foretinib; first compound 0.4 µM)	relative viability (Alpelisib + Foretinib; first compound 1.265 µM)	relative viability (Alpelisib + Foretinib; first compound 4 µM)	relative viability (Vemurafenib + Olaparib; first compound 0.03162 µM)	relative viability (Vemurafenib + Olaparib; first compound 0.1 µM)	relative viability (Vemurafenib + Olaparib; first compound 0.3162 µM)	relative viability (Vemurafenib + Olaparib; first compound 1 µM)	relative viability (OSI-027 + Pemetrexed; first compound 0.01 µM)	relative viability (OSI-027 + Pemetrexed; first compound 0.03162 µM)	relative viability (OSI-027 + Pemetrexed; first compound 0.1 µM)	relative viability (OSI-027 + Pemetrexed; first compound 0.3162 µM)	relative viability (OSI-027 + Pemetrexed; first compound 1 µM)	relative viability (Alpelisib + Navitoclax; first compound 0.04 µM)	relative viability (Alpelisib + Navitoclax; first compound 0.1265 µM)	relative viability (Alpelisib + Navitoclax; first compound 0.4 µM)	relative viability (Alpelisib + Navitoclax; first compound 1.265 µM)	relative viability (Alpelisib + Navitoclax; first compound 4 µM)
NCI-H650	1.03	0.988	1.01	0.839	0.822	0.385	0.368	0.305	0.378	0.878	1.03	0.836	0.671	0.367	–	–	–	–	–
NCI-H661	1.02	1.05	1.08	1.02	0.92	0.686	0.752	0.769	0.709	0.886	0.941	0.934	0.882	0.631	–	–	–	–	–
NCI-H727	0.897	0.772	0.771	0.645	0.676	0.748	0.774	0.726	0.51	–	–	–	–	–	0.33	0.303	0.411	0.244	0.137
NCI-H1299	1.12	1.12	1.19	0.978	1.12	0.906	0.954	0.863	0.792	–	–	–	–	–	1.05	1.05	1.07	1.01	1.02
NCI-H1563	0.861	0.95	0.909	0.713	0.748	–	–	–	–	0.754	0.719	0.72	0.755	0.543	–	–	–	–	–
NCI-H1623	0.833	0.744	0.845	0.54	0.494	–	–	–	–	–	–	–	–	–	–	–	–	–	–
NCI-H1648	–	–	–	–	–	–	0.434	0.927	0.761	0.849	0.825	–	0.656	0.701	–	–	–	–	–
NCI-H1703	0.295	0.362	0.381	0.271	0.303	0.432	0.307	0.454	0.515	–	–	–	–	–	1.01	0.994	0.71	0.565	0.464
NCI-H1792	–	–	–	–	–	0.404	0.45	–	0.441	0.569	0.852	0.757	0.635	0.214	0.619	0.582	0.702	0.514	0.336
NCI-H2342	1.01	1.08	1.07	0.767	0.753	0.401	0.429	0.608	0.354	0.755	0.818	0.752	0.697	0.5	–	–	–	–	–
SW 900	1.22	0.991	0.79	0.885	0.843	0.812	0.607	0.939	0.994	0.368	0.56	0.477	0.508	0.406	–	–	–	–	–
